Measurements from patent US20230234936A1, “COMPOUND FOR TARGETING AND DEGRADING PROTEIN, AND PREPARATION METHOD THEREFOR AND USE THEREOF” (SHANGHAI LEADINGTAC PHARMACEUTICAL CO., LTD., priority 2020, published 2023).

Key:
IRAK4 kinase = target: T1, IRAK4 kinase (Homo sapiens, UniProt Q9NWZ3); test: IRAK4 kinase activity test (KinEASE-STK S1 HTRF kit); assay type: biochemical; conditions: 2.5 nM kinase, 1 μM biotinylated polypeptide substrate, 7 μM ATP, 37° C. 120 min
T1 sequence (Q9NWZ3 1-460): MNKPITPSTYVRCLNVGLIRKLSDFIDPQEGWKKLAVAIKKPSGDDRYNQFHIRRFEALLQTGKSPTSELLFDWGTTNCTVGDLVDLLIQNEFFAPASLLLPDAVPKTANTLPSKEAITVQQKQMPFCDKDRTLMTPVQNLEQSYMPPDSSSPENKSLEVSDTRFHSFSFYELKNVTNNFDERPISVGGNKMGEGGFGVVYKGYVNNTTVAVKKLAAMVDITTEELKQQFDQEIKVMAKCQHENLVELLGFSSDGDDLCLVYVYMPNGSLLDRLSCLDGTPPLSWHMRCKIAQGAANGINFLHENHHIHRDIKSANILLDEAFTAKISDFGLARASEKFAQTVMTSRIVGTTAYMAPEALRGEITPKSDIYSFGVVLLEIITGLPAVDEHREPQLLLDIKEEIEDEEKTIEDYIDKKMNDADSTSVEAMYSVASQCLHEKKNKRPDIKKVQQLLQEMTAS
Outline: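 Compound in DMSO, serially diluted to 10000–0.038 nM final, incubated with 2.5 nM kinase, 1 μM biotinylated peptide substrate and 7 μM ATP at 37° C for 120 min. Eu-anti-phospho-Ser/Thr antibody plus streptavidin-XL665 stopped the reaction (1 h RT). HTRF 665/620 nm ratio gave % inhibition versus control; IC50 from nonlinear log-concentration fit.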

[1] = target: T2, IRAK4 protein in THP-1 cells (Homo sapiens, UniProt Q9NWZ3); test: Degradation of IRAK4 in THP-1 cells (Western blot); assay type: cell-based; conditions: 24 hours, compound 1-3000 nM
T2 construct: endogenous in cells; host or cells: THP-1
T2 sequence (Q9NWZ3 1-460): T1 sequence (Q9NWZ3 1-460)
Outline: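 THP-1 cells (5×10^5/well) treated 24 h with compound at 1–3000 nM final. IRAK4 in lysates quantified by Western blot, normalized to internal reference and compared with control to give degradation rate; DC50 and Dmax from nonlinear fit of log concentration.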

[2] = tested on: Interleukin-6 (IL-6) in LPS-induced human PBMC; test: Cytokine secretion of LPS-induced human PBMC, IL-6 AlphaLISA detection; assay type: cell-based; conditions: inhibition of IL-6, compound 1 hour or 20 hours, then LPS 100 ng/mL 5 hours
Method: Frozen human PBMC (Milestone, PB010C) was resuspended to RPMI 1640 medium (Gibco, A1049101) after resuscitation, supplemented with 10% fetal bovine serum (Gibco, 10099141), 100 U/mL penicillin and 100 μg/mL streptomycin (Gibco, 15140122). On the same day, 150 μL of PBMC was spread in each well of a 96-well transparent cell plate (Labserv, 310109008), so that the cell density was 2×10^5 cells/well. Then 50 μL diluted compound solution was added to the corresponding cell-covered wells to make the final concentration of the compound in the range of 0.026-10000 nM. The final concentration of DMSO was 0.25%. After the drug-treated cell plate was cultured at 37° C. for 1 hour or 20 hours in a 5% CO2 incubator, 10 μL LPS (0111:B4) (Sigma, L4391) was added with a final concentration of 100 ng/mL. The cell plate was again placed in a 5% CO2 incubator at 37° C. for 5 hours, centrifuged at 2000 rpm for 10 minutes, and 100 μL cell supernatant was taken from each well and transferred to a new 96-well transparent cell plate for cytokine concentration test, which was frozen at −80° C. to be tested.
The concentration of IL-6 in the supernatant of LPS-induced human PBMC cells was determined using interleukin-6 (IL-6) AlphaLISA detection kit (PerkinElmer, AL223 C).
According to the product instructions, IL-6 standard solutions with different concentrations were prepared in the concentration range of […]. 2 μL of IL-6 standard solution at various concentrations and the cell supernatant sample to be tested were taken, respectively added to white 384 well plates (PerkinElmer, 6007299), then a mixed solution of 8 μL of 5× anti-IL-6 receptor beads (final concentration: 10 μg/mL) and biotin-labeled anti-IL-6 antibody (final concentration 1 nM) was added to each well, and incubated at 23° C. for 60 minutes. Finally, 10 μL of 2× streptavidin-labeled donor beads (final concentration: 40 μg/mL) were added to each well and incubated at 23° C. for 30 minutes in the absent of light. After the incubation, the AlphaLISA signal value was determined in the AlphaScreen standard setting mode on the microplate reader EnVision(PerkinElmer, 2105). The standard curve was drawn by the AlphaLISA signal value of each concentration IL-6 standard solution, and then based on the corresponding concentration on the standard curve for the AlphaLISA signal value of the sample to be tested, the IL-6 concentration of each cell lysis supernatant was determined. Compared with the IL-6 concentration of the control group, the inhibition rate of the compound at each concentration was calculated, and then IC50 value of the compound was calculated by fitting the nonlinear curve with the logarithmic concentration-inhibition rate by GraphPad Prism 7.

COc1cc2nn([C@H]3CC[C@H](CN(C)C4CCC5(CC4)CCN(C(=O)c4ccc(Cl)c(N6CCC(=O)NC6=O)c4)CC5)CC3)cc2cc1NC(=O)c1cccc(C(F)(F)F)n1 [Example 53, N-(2-((1r,4r)-4-(((3-(4-chloo-3-(2,4-dioxotetrahydro-pyrimidin-1 (2H)-yl)benzoyl)-3-azaspiro [5.5]undec-9-yl) (methyl)amino)methyl)cyclohexyl)-6-methoxy-2H-inda-zol-5-yl)-6-(triflu-oromethyl) pyridinecarbox-amide]
IC50 (IRAK4 kinase): 6.3 nM | DC50 [1]: 5.9 nM | Dmax [1]: 96.3% | IC50 [2]: 2.8 nM

COc1cc2nn([C@H]3CC[C@H](CCN4CCC5(CC4)CCN(C(=O)c4ccc(Cl)c(N6CCC(=O)NC6=O)c4)CC5)CC3)cc2cc1NC(=O)c1cccc(C(F)(F)F)n1 [Example 54, N-(2-((1r,4r)-4-(2-(9-(4-chloro-3-(2,4-dioxo-tetrahydropyrim-idin-1 (2H)-yl)benzoyl)-3,9-diazaspiro[5.5]undec-3-yl)ethyl)cyclohexyl)-6-methoxy-2H-inda-zol-5-yl)-6-(tri-fluoromethyl) pyridinecarbox-amide]
IC50 (IRAK4 kinase): 7.5 nM | DC50 [1]: 1.4 nM | Dmax [1]: 98.9% | IC50 [2]: 2.6 nM

COc1cc2nn(C3CCN(CCCN4CCC5(CC4)CCN(C(=O)c4ccc(OC)c(N6CCC(=O)NC6=O)c4)CC5)CC3)cc2cc1NC(=O)c1cccc(C(F)(F)F)n1 [Example 2, N-(2-(1-(3-(9-(3-(2,4-dioxotetrahydropyrimi-din-1 (2H)-yl)-4-methoxyben-zoyl)-3,9-diazaspiro [5.5]undec-3-yl)propyl)piperidin-4-yl)-6-methoxy-2H-indazol-5-yl)-6-(tri-fluoromethyl)-2-pyridine carboxamide]
IC50 (IRAK4 kinase): 2.9 nM | DC50 [1]: 7.4 nM | Dmax [1]: 99.1%

COc1cc2nn(C3CCN(CCC4CCC5(CC4)CCN(C(=O)c4cccc(N6CCC(=O)NC6=O)c4)CC5)CC3)cc2cc1NC(=O)c1cccc(C(F)(F)F)n1 [Example 47, N-(2-(1-(2-(3-(3-(2,4-dioxotetrahydro-pyrimidin-1 (2H)-yl)benzoyl)-3-azaspiro[5.5]undec-9-yl)ethyl)piperidin-4-yl)-6-methoxy-2H-in-dazol-5-yl)-6-(tri-fluoromethyl) pyridinecarbox-amide]
IC50 (IRAK4 kinase): 34.2 nM | DC50 [1]: 5.4 nM | Dmax [1]: 98.3%

COc1cc2nn(C3CCN(CC4CCC5(CC4)CCN(C(=O)c4ccc(F)c(N6CCC(=O)NC6=O)c4)CC5)CC3)cc2cc1NC(=O)c1cccc(C(F)(F)F)n1 [Example 44, N-(2-(1-((3-(3-(2,4-dioxotetrahydro-pyrimidin-1 (2H)-yl)-4-fluoro-benzoyl)-3-azaspiro[5.5]undec-9-yl)methyl)piperidin-4-yl)-6-methoxy-2H-indazol-5-yl)-6-(trifluoromethyl) pyridinecarbox-amide]
IC50 (IRAK4 kinase): 52.4 nM | DC50 [1]: 2.3 nM | Dmax [1]: 98.5%

COc1cc2nn(C3CCN(CCN4CCC5(CC4)CCN(C(=O)c4ccc(Cl)c(N6CCC(=O)NC6=O)c4)CC5)CC3)cc2cc1NC(=O)c1cccc(C(F)(F)F)n1 [Example 16, N-(2-(1-(2-(9-(4-chloro-3-(2,4-dioxotetrahydro-pyrimidin-1 (2H)-yl)benzoyl)-3,9-diazaspiro[5.5]undec-3-yl)ethyl)piperidin-4-yl)-6-methoxy-2H-in-dazol-5-yl)-6-(tri-fluoromethyl) pyridinecarbox-amide]
IC50 (IRAK4 kinase): 9.2 nM | DC50 [1]: 7.1 nM | Dmax [1]: 99.4%

COc1cc2nn(C3CCN(CCC4CCC5(CC4)CCN(C(=O)c4ccc(F)c(N6CCC(=O)NC6=O)c4)CC5)CC3)cc2cc1NC(=O)c1cccc(C(F)(F)F)n1 [Example 46, N-(2-(1-(2-(3-(3-(2,4-dioxotetrahydro-pyrimidin-1 (2H)-yl)-4-fluoro-benzoyl)-3-azaspiro[5.5]undec-9-yl)ethyl)piperidin-4-yl)-6-methoxy-2H-indazol-5-yl)-6-(tri-fluoromethyl) pyridinecarbox-amide]
IC50 (IRAK4 kinase): 43.1 nM | DC50 [1]: 4 nM | Dmax [1]: 97.8%

COc1cc2nn(C3CCN(CC4CC5(CCN(C(=O)c6ccc(Cl)c(N7CCC(=O)NC7=O)c6)CC5)C4)CC3)cc2cc1NC(=O)c1cccc(C(F)(F)F)n1 [Example 39, N-(2-(1-((7-(4-chloro-3-(2,4-dioxotetrahydro-pyrimidin-1 (2H)-yl)benzoyl)-7-azospiro [3.5]non-2-yl)methyl)piperidin-4-yl)-6-methoxy-2H-indazol-5-yl)-6-(trifluoromethyl) pyridinecarbox-amide]
IC50 (IRAK4 kinase): 16.7 nM | DC50 [1]: 10.5 nM | Dmax [1]: 89.4%

COc1ccc(C(=O)N2CCC3(CC2)CN(CCN2CCC(n4cc5cc(NC(=O)c6cccc(C(F)(F)F)n6)c(C(C)(C)O)cc5n4)CC2)C3)cc1N1CCC(=O)NC1=O [Example 12, N-(2-(1-(2-(7-(3-(2,4-dioxotetrahydropyrimidin-1 (2H)-yl)-4-methoxybenzoyl)-2,7-diazaspiro [3.5]non-2-yl)ethyl)piperidin-4-yl)-6-(2-hydroxyprop-2-yl)-2H-indazol-5-yl)-6-(trifluoro-methyl) pyridinecarboxamide]
IC50 (IRAK4 kinase): 7.9 nM | DC50 [1]: 1.4 nM | Dmax [1]: 96.9%

COc1ccc(C(=O)N2CCC3(CCN(CCCN4CCC(n5cc6cc(NC(=O)c7cccc(C(F)(F)F)n7)c(C(C)(C)O)cc6n5)CC4)CC3)CC2)cc1N1CCC(=O)NC1=O [Example 11]
IC50 (IRAK4 kinase): 6 nM | DC50 [1]: 27.7 nM | Dmax [1]: 99.6%

COc1cc2nn([C@H]3CC[C@H](N4CCC5(CCN(C(=O)c6ccc(Cl)c(N7CCC(=O)NC7=O)c6)CC5)CC4)CC3)cc2cc1NC(=O)c1cccc(C(F)(F)F)n1 [Example 58, N-(2-((1r,4r)-4-(9-(4-chloro-3-(2,4-dioxotetrahydro-pyrimidin-1 (2H)-yl)benzoyl)-3,9-diazaspiro[5.5]undec-3-yl)cyclohexyl)-6-methoxy-2H-inda-zol-5-yl)-6-(triflu-oromethyl) pyridinecarbox-amide]
IC50 (IRAK4 kinase): 4.3 nM | DC50 [1]: 7.6 nM | Dmax [1]: 92.1%

COc1cc2nn(C3CCN(CCC4CCC5(CC4)CCN(C(=O)c4ccc(Cl)c(N6CCC(=O)NC6=O)c4)CC5)CC3)cc2cc1NC(=O)c1cccc(C(F)(F)F)n1 [Example 48, N-(2-(1-(2-(3-(4-chloro-3-(2,4-dioxotetrahydro-pyrimidin-1 (2H)-yl)benzoyl)-3-azaspiro[5.5]undec-9-yl)ethyl)piperidin-4-yl)-6-methoxy-2H-in-dazol-5-yl)-6-(tri-fluoromethyl) pyridinecarbox-amide]
IC50 (IRAK4 kinase): 61.8 nM | DC50 [1]: 6 nM | Dmax [1]: 98%
